Measured values taken from patent US9783585B2, “Compositions and methods for increasing the expression and signalling of proteins on cell surfaces” (JOHNS HOPKINS UNIVERSITY, priority 2013, dated 2017).

Assays:
[1] = target: T1, mOREG (Mus musculus, UniProt Q920P2); test: Luciferase reporter assay (CRE Firefly:Renilla), mOREG constructs; assay type: cell-based; settings: Rho-mOREG, Lucy-mOREG and Lucy-Rho-mOREG, no RTP1S, eugenol 100-300 μM, P≦0.05, 300 μM vs 0 μM
T1 construct: The mOR-EG full-length construct, containing N-terminal Flag/Rho tags; expressed in transfected cells; host or cells: HEK293T
T1 sequence (Q920P2 1-313): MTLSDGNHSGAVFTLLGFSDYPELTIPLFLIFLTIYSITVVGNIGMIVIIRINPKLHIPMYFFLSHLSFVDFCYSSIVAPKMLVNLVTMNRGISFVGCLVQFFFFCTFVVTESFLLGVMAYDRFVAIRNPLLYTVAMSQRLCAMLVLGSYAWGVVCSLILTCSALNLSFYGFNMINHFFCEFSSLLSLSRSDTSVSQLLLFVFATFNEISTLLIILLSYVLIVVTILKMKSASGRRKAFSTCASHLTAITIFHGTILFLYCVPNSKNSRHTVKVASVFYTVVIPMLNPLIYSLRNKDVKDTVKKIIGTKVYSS
Description: (§1) Luciferase Assay. The luciferase assay was performed as previously described. Briefly, ORs were transfected into HEK293T cells along with constructs encoding for CREB-dependent luciferase (Firefly) and a constitutively expressed luciferase (Renilla). OR activation leads to a rise in cAMP which drives an increase in Firefly luciferase expression. Firefly activity is normalized to the activity of the Renilla luciferase to control for variation in cell number and transfection efficiency. Data were collected using a FLUOstar Omega automated platereader (BMG LabTech, Cary, N.C.). For some experiments, RTP1S was also transfected.
Statistical Analysis. One-way ANOVA analysis followed by the Student-Newman Keuls test was performed on the luciferase reporter assay to compare the doses of isovaleric acid (0.1-5 mM) or eugenol (100-300 μM) to the non-treated control (0 μM). As each condition was performed in triplicate, the analyses were done with an n=3, and P values≦0.05 were deemed significant. One-way ANOVE followed by Student-Newman Keuls was also used to analyze the surface expression data in FIG. 7. […]
As mOREG is one of the ORs that reach the cell surface under every condition tested, we expressed the OR with and without the Lucy and Rho tags and assessed its response to eugenol.

[2] = target: T2, Olfr691 (Mus musculus, UniProt Q8VGW5); test: Luciferase reporter assay (CRE Firefly:Renilla), Olfr691 constructs; assay type: cell-based; settings: 0.1-5 mM isovaleric acid
T2 construct: The other full-length ORs were amplified using primers which added appropriate restriction sites; expressed in transfected cells; host or cells: HEK293T
T2 sequence (Q8VGW5 1-322): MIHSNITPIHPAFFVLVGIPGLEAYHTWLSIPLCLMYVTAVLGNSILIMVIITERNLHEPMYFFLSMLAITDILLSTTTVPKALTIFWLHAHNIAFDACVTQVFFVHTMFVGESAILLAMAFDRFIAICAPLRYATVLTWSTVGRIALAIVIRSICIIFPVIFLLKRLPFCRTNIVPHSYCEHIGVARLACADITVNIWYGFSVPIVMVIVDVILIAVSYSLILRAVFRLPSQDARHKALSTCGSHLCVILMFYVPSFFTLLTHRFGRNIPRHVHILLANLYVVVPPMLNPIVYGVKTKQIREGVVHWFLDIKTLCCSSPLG
Description: as §1
Statistical Analysis. One-way ANOVA analysis followed by the Student-Newman Keuls test was performed on the luciferase reporter assay to compare the doses of isovaleric acid (0.1-5 mM) or eugenol (100-300 μM) to the non-treated control (0 μM). As each condition was performed in triplicate, the analyses were done with an n=3, and P values≦0.05 were deemed significant. One-way ANOVE followed by Student-Newman Keuls was also used to analyze the surface expression data in FIG. 7. A Student T-Test was performed on the ELISA to assess the significance of the increased protein expression (Control construct vs. Lucy construct for each OR, n=4 for each condition). P values≦0.05 were deemed significant. In both the luciferase reporter assay and the ELISA, the error bars represent the SEM.
To determine whether Lucy-tagged ORs expressed on the cell surface can still respond to their ligands in the absence of RTP1S, and to ensure that the Lucy tag is not altering ligand binding or detection, we assayed for a functional ligand response using a luciferase reporter assay. In this assay, OR-ligand binding leads to an increase in cAMP which drives the expression of a CRE luciferase. An increase in the Firefly (CRE-dependent luciferase): Renilla (constitutively activated luciferase) ratio indicates OR activation. Previously, it was determined that Olfr691 responds to isovaleric acid. […]

Structure (SMILES)	OR activation (Firefly:Renilla ratio) [1]	OR activation (Firefly:Renilla ratio) ([2]; Lucy-Rho-Olfr691 with and without RTP, P<0.007 vs 0 mM)	OR activation (Firefly:Renilla ratio) ([2]; Rho-Olfr691 co-expressed with RTP1S, P≦0.002 vs 0 mM)	OR activation (Firefly:Renilla ratio) ([2]; Rho-Olfr691 without RTP1S)
C=CCc1ccc(O)c(OC)c1 [eugenol]	dose-dependent activation			
CC(C)CC(=O)O [isovaleric acid]		dose-dependent manner	dose-dependent increase	not significantly activated at any concentration
